Test results taken from patent US20220106304A1, “Transcription Factor BRN2 Inhibitory Compounds as Therapeutics and Methods for Their Use” (The University of British Columbia, priority 2018, published 2022).

Assays:
BRN2 = target: T1, BRN2 (Homo sapiens, UniProt P20265); assay: cell-based; conditions: negative = activation; for inhibition at 10 µM: read-out: % BRN2 Inhibition (10 μM), 10 μM compound, 24 hours, 42D^ENZR cells stably expressing BRN2-luciferase reporter; for inhibition at 30 µM: read-out: % BRN2 Inhibition (30 μM), 30 μM compound, 24 hours, 42D^ENZR cells stably expressing BRN2-luciferase reporter
T1 sequence (P20265 1-443): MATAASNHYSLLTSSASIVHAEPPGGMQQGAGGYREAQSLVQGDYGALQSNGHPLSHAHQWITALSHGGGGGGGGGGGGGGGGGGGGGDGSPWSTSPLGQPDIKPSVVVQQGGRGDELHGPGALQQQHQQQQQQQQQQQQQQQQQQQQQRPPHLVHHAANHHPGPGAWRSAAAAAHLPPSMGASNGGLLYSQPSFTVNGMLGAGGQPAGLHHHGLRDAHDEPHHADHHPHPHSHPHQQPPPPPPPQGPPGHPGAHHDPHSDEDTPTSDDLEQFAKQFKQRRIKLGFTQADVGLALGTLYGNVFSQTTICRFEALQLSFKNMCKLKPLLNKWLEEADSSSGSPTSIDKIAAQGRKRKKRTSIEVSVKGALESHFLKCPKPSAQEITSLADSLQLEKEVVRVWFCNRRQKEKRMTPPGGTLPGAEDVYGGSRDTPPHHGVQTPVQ

[1] = test system: 42D^ENZR cells vs 16D^CRPC cells; assay: Cell proliferation specificity, 42D^ENZR cells vs 16D^CRPC cells; format: cell-based; conditions: 42D cells express BRN2, 16D cells do not; some also LNCaP; result in words
Protocol: (§1) Plate 42DENZR (˜7000 cells per well) and 16D^CRPC (˜5000 cells per well) cells in 96 well plate with a volume of 100 μL per well. • 2. Next day 1 mL aliquots of media are combined with 3× the desired concentration of compounds. The aliquots are vortexed and 50 μL of each 3× concentration is added to the 100 μL of media in each well to give the ix desired concentration.
(§2) The following are the desired concentrations:
(§3) 0, 10 nM, 100 nM, 500 nM, 1 μM, 2.5 μM, 5 μM, 10 μM, 15 μM, […], 30 μM. • 3. Approximately 72 hours later, 17 μL of 10% Glutaraldehyde is added to each well and plates are placed on a shaker for 20-30 minutes. • 4. Media is washed off the fixed cells by slow submersion in a container of water. Then the water is removed by tapping the plate upside down. • 5. 75 μL of Crystal Violet™ solution is added into the 96 well plates and placed on a shaker for ˜30 minutes. • 6. Media is washed off the fixed cells by repeated slow submersion in a container of water and the plates are allowed to dry over-night. • 7. Next day, 75 μL of Sorensen Solution is accurately pipetted into each well. The plates placed on a shaker for ˜30 minutes. • 8. Absorbance is measured in the plate at 590 nm.
Compounds that Show Specificity Towards 42D^ENZR Cells Vs 16D^CRPC Cells Progress to Step 4.
Where data is not available “na” is inserted.

[2] = Liver microsome metabolic stability, MLM; format: in vitro ADME; conditions: MLM (single value or second of two), 1 μM compound, 0.25 mg/mL protein; for Met Stab % (60 mins HLM/MLM): percent remaining at 60 min, 1 mM NADPH; for half-life at 1 µM: mouse, liver microsomes, pH 7.4, read-out: T1/2 in (mins HLM/MLM)
How it was run: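 Compound (1 μM) incubated at 37 °C with mouse or human liver microsomes (0.25 mg/mL) in 50 mM phosphate pH 7.4 with 1 mM NADPH; samples quenched at 0–60 min. Parent loss by LC-MS/MS gives t½ (0.693/k) and CL'int scaled by 45 mg protein/g liver.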

42D^ENZR cells = assay: Cell proliferation (crystal violet), BRN2 expressing 42D^ENZR cells; format: cell-based; conditions: 42D cells, approximately 72 hours
Protocol: as §1, §2, §3

With `FC(F)(F)c1ccc2cc(-c3csc(-c4ccoc4)n3)oc2c1` [VPC-18-104, 2-(furan-3-yl)-4-(6-(trifluoromethyl)benzofuran-2-yl)thiazole] the inhibition at 10 µM (BRN2) was 87.1%, the inhibition at 30 µM (BRN2) was 94.2% and the specificity [1] was “VPC-18- 104 (specific 42D not 16D)”. For the same compound, the “Met Stab % (60 mins HLM/MLM)” value [2] was 1% and the half-life at 1 µM [2] was 10 min.
In the case of `Clc1ccc2cc(-c3csc(-c4ccoc4)n3)oc2c1` [VPC-18-105, 4-(6-chlorobenzofuran-2-yl)-2-(furan-3-yl)thiazole], the inhibition at 10 µM (BRN2) is reported as 79.5%, the inhibition at 30 µM (BRN2) is reported as 92% and the specificity [1] is reported as “VPC-18- 105 (specific 42D not 16D)”. The “Met Stab % (60 mins HLM/MLM)” value [2] was 1% and the half-life at 1 µM [2] was 10 min.
With `FC(F)(F)c1ccc2cc(-c3csc(-c4ccc[nH]4)n3)oc2c1` [VPC-18-108] the inhibition at 10 µM (BRN2) was 84.4%, the inhibition at 30 µM (BRN2) was 92.6% and the specificity [1] was “VPC-18- 108 (specific)”. The “Met Stab % (60 mins HLM/MLM)” value [2] was 15% and the half-life at 1 µM [2] was 31 min.
In the case of `Cc1ccc2cc(-c3csc(-c4ccco4)n3)oc2c1` [VPC-18-110, 2-(furan-2-yl)-4-(6-methylbenzofuran-2-yl)thiazole], the inhibition at 10 µM (BRN2) is reported as 93.5%, the inhibition at 30 µM (BRN2) is reported as 98.6% and the specificity [1] is reported as “VPC-18- 110 (specific)”. The “Met Stab % (60 mins HLM/MLM)” value [2] was 1% and the half-life at 1 µM [2] was 10 min.
With `Clc1ccc2cc(-c3csc(-c4cc[nH]c4)n3)oc2c1` [VPC-18-115] the inhibition at 10 µM (BRN2) was 98%, the inhibition at 30 µM (BRN2) was 99% and the specificity [1] was “VPC-18- 115 (specific)”. For the same compound, the “Met Stab % (60 mins HLM/MLM)” value [2] was 18% and the half-life at 1 µM [2] was 22 min.
Work on `Clc1ccc2cc(-c3cccc(-c4ccc[nH]4)n3)oc2c1` [VPC-18-149] yielded an inhibition at 10 µM (BRN2) of 94.6%, an inhibition at 30 µM (BRN2) of 96.2% and an IC50 (42D^ENZR cells) of 1 µM. For the same compound, the specificity [1] was “not 16D”, the “Met Stab % (60 mins HLM/MLM)” value [2] was 21% and the half-life at 1 µM [2] was 30 min.
With `Cc1c(-c2csc(-c3ccc[nH]3)n2)oc2cc(Cl)ccc12` [VPC-18-155] the IC50 (42D^ENZR cells) was 10 µM, the specificity [1] was “not 16D” and the “Met Stab % (60 mins HLM/MLM)” value [2] was 24%. For the same compound, the half-life at 1 µM [2] was 31 min.
